Series [1] concerns Plutella xylostella (Diamond Back Moth). In words: Plutella xylostella artificial diet test. The following applies: 120 h, application rate 200 ppm, L2 larvae, 5 days after infestation, read-out: effect in at least one of the two categories (mortality or growth inhibition). The class given is in vivo. As to the method: Plutella xylostella (Diamond Back Moth):
24-well microtiter plates with artificial diet were treated with aqueous test solutions prepared from 10,000 ppm DMSO stock solutions by pipetting. After drying, the plates were infested with L2 larvae (10 to 15 per well). The samples were assessed for mortality and growth inhibition in comparison to untreated samples 5 days after infestation. The following compounds gave an effect of at least 80% in at least one of the two categories (mortality or growth inhibition) at an application rate of 200 ppm: 1, 2, 3, 4, 5, 6, 7, 8, 9, 11 and 12.

Series [2] deals with Spodoptera littoralis (Egyptian Cotton Leaf Worm). Description: Spodoptera littoralis cotton leaf disc spray test. The following applies: foliar, 72 h, application rate 200 ppm, L1 larvae, 3 days after infestation, read-out: control (at least one of mortality, anti-feedant effect, and growth inhibition). The class given is in vivo. As to the method: Spodoptera littoralis (Egyptian Cotton Leaf Worm)
Cotton leaf discs were placed on agar in 24-well microtiter plates and sprayed with aqueous test solutions prepared from 10,000 ppm DMSO stock solutions. After drying the leaf discs were infested with five L1 larvae. The samples were assessed for mortality, anti-feedant effect, and growth inhibition in comparison to untreated samples 3 days after infestation. Control of Spodoptera littoralis by a test sample is when at least one of mortality, anti-feedant effect, and growth inhibition is higher than the untreated sample.

Series [3] concerns Diabrotica Balteata, (Corn Root Worm). Description: Diabrotica balteata maize sprout spray test. The series is classed as in vivo. The following applies: 96 h, application rate 200 ppm, L2 larvae, 4 days after infestation, read-out: effect in at least one of the two categories (mortality or growth inhibition). The method, then:
Diabrotica Balteata, (Corn Root Worm) Maize sprouts, placed on an agar layer in 24-well microtiter plates were treated with aqueous test solutions prepared from 10,000 ppm DMSO stock solutions by spraying. After drying, the plates were infested with L2 larvae (6 to 10 per well). The samples were assessed for mortality and growth inhibition in comparison to untreated samples 4 days after infestation. The following compounds gave an effect of at least 80% in at least one of the two categories (mortality or growth inhibition) at an application rate of 200 ppm: 1, 2, 3, 5 and 6.

For series [4], the system named is Thrips tabaci (Onion Thrips). Description: Thrips tabaci sunflower leaf disc spray test. The series is classed as in vivo. The following applies: foliar, 144 h, application rate 200 ppm, population of mixed ages, 6 days after infestation. As to the method:
Thrips tabaci (Onion Thrips):
Sunflower leaf discs were placed on agar in 24-well microtiter plates and sprayed with aqueous test solutions prepared from 10,000 ppm DMSO stock solutions. After drying the leaf discs were infested with a thrips population of mixed ages. The samples were assessed for mortality 6 days after infestation.

For series [5], the system named is Tetranychus urticae (Two-Spotted Spider Mite). Description: Tetranychus urticae bean leaf disc spray test. The class given is in vivo. The following applies: foliar, 192 h. As to the method:
Tetranychus urticae (Two-Spotted Spider Mite):
Bean leaf discs on agar in 24-well microtiter plates were sprayed with aqueous test solutions prepared from 10,000 ppm DMSO stock solutions. After drying the leaf discs were infested with a mite population of mixed ages. The samples were assessed for mortality on mixed population (mobile stages) 8 days after infestation.

Series [6] concerns Euschistus heros (Neotropical Brown Stink Bug). In words: Euschistus heros soybean leaf spray test. The series is classed as in vivo. The conditions noted are these: 120 h, application rate 200 ppm, N2 nymphs, 5 days after infestation, read-out: effect in at least one of the two categories (mortality or growth inhibition). As to the method:
Euschistus heros (Neotropical Brown Stink Bug)
Soybean leaves on agar in 24-well microtiter plates were sprayed with aqueous test solutions prepared from 10,000 ppm DMSO stock solutions. After drying the leaves were infested with N2 nymphs. The samples were assessed for mortality and growth inhibition in comparison to untreated samples 5 days after infestation. The following compounds gave an effect of at least 80% in at least one of the two categories (mortality or growth inhibition) at an application rate of 200 ppm: 1

Some results are limits rather than exact numbers.

Usually mortality stands for the percentage killed. The term melting point denotes the temperature of the solid-liquid transition.

Turning to `Cn1nc(OC(F)(F)C(F)C(F)(F)F)c(C(F)(F)F)c1-c1cc(-c2cc(C(=O)NC3CC3)c(Cl)s2)on1` (stereo not shown) [Example 7, 2-chloro-N-cyclopropyl-5-[3-[5-(1,1,2,3,3,3-hexafluoropropoxy)-2-methyl-4-(trifluoromethyl)pyrazol-3-yl]isoxazol-5-yl]thiophene-3-carboxamide], in series [1], the percent effect (mortality or growth inhibition) at 200 ppm was at least 80%. Further, the mortality at 200 ppm in series [2] was at least 80%.
Regarding `CCN(C(=O)c1cc(-c2cc(-c3c(C(F)(F)F)c(OC(F)(F)C(F)C(F)(F)F)nn3C)no2)sc1C#N)C1(C#N)CC1` (stereo not shown) [Example 6, 2-cyano-N-(1-cyanocyclopropyl)-N-ethyl-5-[3-[5-(1,1,2,3,3,3-hexafluoropropoxy)-2-methyl-4-(trifluoromethyl)pyrazol-3-yl]isoxazol-5-yl]thiophene-3-carboxamide], the percent effect (mortality or growth inhibition) at 200 ppm in series [1] and in series [3] was at least 80% each time. Further, the mortality at 200 ppm in series [4] and in series [2] was at least 80% each time.
On to `CN(C(=O)c1cc(-c2cc(-c3c(C(F)(F)F)c(OC(F)(F)C(F)C(F)(F)F)nn3C)no2)sc1Cl)C1CC1` (stereo not shown) [Example 8, 2-chloro-N-cyclopropyl-5-[3-[5-(1,1,2,3,3,3-hexafluoropropoxy)-2-methyl-4-(trifluoromethyl)pyrazol-3-yl]isoxazol-5-yl]-N-methyl-thiophene-3-carboxamide], for which the percent effect (mortality or growth inhibition) at 200 ppm in series [1] is at least 80%. Also, in series [2], the mortality at 200 ppm is at least 80%.
With `Cn1nc(OC(F)(F)C(F)C(F)(F)F)c(C(F)(F)F)c1-c1cc(-c2cc(C(=O)NC3(C#N)CC3)c(C#N)s2)on1` (stereo not shown) [Example 4, 2-cyano-N-(1-cyanocyclopropyl)-5-[3-[5-(1,1,2,3,3,3-hexafluoropropoxy)-2-methyl-4-(trifluoromethyl)pyrazol-3-yl]isoxazol-5-yl]thiophene-3-carboxamide], in series [1], the percent effect (mortality or growth inhibition) at 200 ppm is at least 80%. In series [4], this compound showed a mortality at 200 ppm of at least 80%.
In turn, `Cn1nc(OC(F)(F)C(F)C(F)(F)F)c(C(F)(F)F)c1-c1cc(-c2cc(C(=O)NC3(C#N)CC3)c(Cl)s2)on1` (stereo not shown) [Example 10, 2-chloro-N-(1-cyanocyclopropyl)-5-[3-[5-(1,1,2,3,3,3-hexafluoropropoxy)-2-methyl-4-(trifluoromethyl)pyrazol-3-yl]isoxazol-5-yl]thiophene-3-carboxamide] yielded a melting point of 218 to 219 °C.
`CCN(C(=O)c1cc(-c2cc(-c3c(C(F)(F)F)c(OC(F)(F)C(F)C(F)(F)F)nn3C)no2)sc1Cl)C1(C#N)CC1` (stereo not shown) [Example 12, 2-chloro-N-(1-cyanocyclopropyl)-N-ethyl-5-[3-[5-(1,1,2,3,3,3-hexafluoropropoxy)-2-methyl-4-(trifluoromethyl)pyrazol-3-yl]isoxazol-5-yl]thiophene-3-carboxamide]: the percent effect (mortality or growth inhibition) at 200 ppm in series [1] was at least 80%. Also, the mortality at 200 ppm in series [2] was at least 80%.
On to `CN(C(=O)c1cc(-c2cc(-c3c(C(F)(F)F)c(OC(F)(F)C(F)C(F)(F)F)nn3C)no2)sc1C#N)C1(C#N)CC1` (stereo not shown) [Example 5, 2-cyano-N-(1-cyanocyclopropyl)-5-[3-[5-(1,1,2,3,3,3-hexafluoropropoxy)-2-methyl-4-(trifluoromethyl)pyrazol-3-yl]isoxazol-5-yl]-N-methyl-thiophene-3-carboxamide], for which the percent effect (mortality or growth inhibition) at 200 ppm in series [1] and in series [3] was at least 80% each time. Also, the mortality at 200 ppm in series [4] and in series [2] was at least 80% in each case.
Turning to `CN(C(=O)c1cc(-c2cc(-c3c(C(F)(F)F)c(OC(F)(F)C(F)C(F)(F)F)nn3C)no2)sc1Cl)C1(C#N)CC1` (stereo not shown) [Example 11, 2-chloro-N-(1-cyanocyclopropyl)-5-[3-[5-(1,1,2,3,3,3-hexafluoropropoxy)-2-methyl-4-(trifluoromethyl)pyrazol-3-yl]isoxazol-5-yl]-N-methyl-thiophene-3-carboxamide], the percent effect (mortality or growth inhibition) at 200 ppm in series [1] is at least 80%. The mortality at 200 ppm in series [2] was at least 80%.
With `CCN(C(=O)c1cc(-c2cc(-c3c(C(F)(F)F)c(OC(F)(F)C(F)C(F)(F)F)nn3C)no2)sc1Cl)C1CC1` (stereo not shown) [Example 9, 2-chloro-N-cyclopropyl-N-ethyl-5-[3-[5-(1,1,2,3,3,3-hexafluoropropoxy)-2-methyl-4-(trifluoromethyl)pyrazol-3-yl]isoxazol-5-yl]thiophene-3-carboxamide], the percent effect (mortality or growth inhibition) at 200 ppm in series [1] was at least 80%. In addition, the mortality at 200 ppm in series [2] was at least 80%.
Consider `CCN(C(=O)c1cc(-c2cc(-c3c(C(F)(F)F)c(OC(F)(F)C(F)C(F)(F)F)nn3C)no2)sc1C#N)C1CC1` (stereo not shown) [Example 3, 2-cyano-N-cyclopropyl-N-ethyl-5-[3-[5-(1,1,2,3,3,3-hexafluoropropoxy)-2-methyl-4-(trifluoromethyl)pyrazol-3-yl]isoxazol-5-yl]thiophene-3-carboxamide], for which the percent effect (mortality or growth inhibition) at 200 ppm in series [1] and in series [3] was at least 80% in each case. This compound came in with a mortality at 200 ppm in series [4] of at least 80%.
For the compound `CN(C(=O)c1cc(-c2cc(-c3c(C(F)(F)F)c(OC(F)(F)C(F)C(F)(F)F)nn3C)no2)sc1C#N)C1CC1` (stereo not shown) [Example 2, 2-cyano-N-cyclopropyl-5-[3-[5-(1,1,2,3,3,3-hexafluoropropoxy)-2-methyl-4-(trifluoromethyl)pyrazol-3-yl]isoxazol-5-yl]-N-methyl-thiophene-3-carboxamide], the percent effect (mortality or growth inhibition) at 200 ppm in series [1] and in series [3] was at least 80% in each case. Further, the mortality at 200 ppm in series [4] and in series [5] was at least 80% each time.
On to `Cn1nc(OC(F)(F)C(F)C(F)(F)F)c(C(F)(F)F)c1-c1cc(-c2cc(C(=O)NC3CC3)c(C#N)s2)on1` (stereo not shown) [Example 1, 2-cyano-N-cyclopropyl-5-[3-[5-(1,1,2,3,3,3-hexafluoropropoxy)-2-methyl-4-(trifluoromethyl)pyrazol-3-yl]isoxazol-5-yl]thiophene-3-carboxamide], for which the percent effect (mortality or growth inhibition) at 200 ppm in series [1], in series [3] and in series [6] was at least 80% in each case. Also, the mortality at 200 ppm in series [4], in series [5] and in series [2] was at least 80% throughout.
